Assay results as given in patent EP4610267A1, “CYCLIC DINUCLEOTIDES AND CONJUGATES THEREOF WITH ANTIBODIES” (priority 2024, dated 2025).

Legend:
[1] = molecular target: T1, STING WT (Homo sapiens, UniProt Q86WV6, H232R); experiment: 293T STING digitonin reporter assay (WT haplotype); assay type: cell-based; conditions: digitonin permeabilised 293T reporter cells
T1 construct: expressed in transfected cells
Protocol: (§1) Digitonin Assay with 293T Reporter Cells. The generation of 293T reporter cells stably expressing different STING protein haplotypes (WT, HAQ, REF, AQ, or Q) was described previously (Novotna et al, J. Med. Chem. 2019,62, 10676). The cells were seeded at a density of 250 000 cells per cm^2 into 96 well white poly(D-lysine) coated plates in 100 µL of DMEM with high glucose supplemented with 10% heat inactivated FBS. Next day, the medium was removed, and compounds were added in 3-fold serial dilutions in a digitonin buffer containing 50 mM HEPES (pH 7.0), 100 mM KCl, 3 mM MgClz, 0.1 mM DTT, 85 mM sucrose, 0.2% (w/w) BSA, 1 mM ATP, 0.1 mM GTP, and 10 µg/mL digitonin A. After 30 min incubation at 37 °C with 5% CO2, the digitonin buffer was removed, cells were washed once with 100 µL of the cultivation medium, and 100 µL of fresh medium was added to each well. The plates with cells were further incubated for 5 h at 37 °C with 5% CO2. Thereafter, 50 µL of the medium was removed, and 30 µL of Bright-Glo Luciferase Assay System reagent was added to each well. […] Nonlinear regression curve fit with standard slope was used for EC50 value calculations. The EC50 value represents CDN concentration that gives half-maximal response of firefly luciferase in the 293T reporter assay.

[2] = molecular target: T2, STING HAQ (Homo sapiens, UniProt Q86WV6, G230A/H232R/R293Q/R71H); experiment: 293T STING digitonin reporter assay (HAQ haplotype); assay type: cell-based; conditions: digitonin permeabilised 293T reporter cells
T2 construct: expressed in transfected cells
T2 sequence (Q86WV6 whole entry R71H/G230A/H232R/R293Q): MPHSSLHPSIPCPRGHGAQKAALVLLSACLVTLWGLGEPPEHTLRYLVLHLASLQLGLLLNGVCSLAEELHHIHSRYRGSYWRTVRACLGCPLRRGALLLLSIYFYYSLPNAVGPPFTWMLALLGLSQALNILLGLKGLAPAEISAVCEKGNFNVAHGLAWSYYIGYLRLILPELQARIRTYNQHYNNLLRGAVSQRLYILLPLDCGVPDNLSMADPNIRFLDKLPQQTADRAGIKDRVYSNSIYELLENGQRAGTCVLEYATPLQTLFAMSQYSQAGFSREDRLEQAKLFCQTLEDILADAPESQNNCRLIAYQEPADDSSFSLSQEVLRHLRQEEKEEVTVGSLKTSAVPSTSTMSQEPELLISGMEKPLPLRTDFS
Protocol: as §1

[3] = molecular target: T3, STING REF (Homo sapiens, UniProt Q86WV6); experiment: 293T STING digitonin reporter assay (REF haplotype); assay type: cell-based; conditions: digitonin permeabilised 293T reporter cells
T3 construct: expressed in transfected cells
T3 sequence (Q86WV6 whole entry): as the sequence (Q86WV6 whole entry R71H/G230A/H232R/R293Q) above, with H71R, A230G, R232H, Q293R counted along it
Protocol: as §1

[4] = molecular target: T4, STING AQ (Homo sapiens, UniProt Q86WV6, G230A/H232R/R293Q); experiment: 293T STING digitonin reporter assay (AQ haplotype); assay type: cell-based; conditions: digitonin permeabilised 293T reporter cells
T4 construct: expressed in transfected cells
T4 sequence (Q86WV6 whole entry G230A/H232R/R293Q): as the sequence (Q86WV6 whole entry R71H/G230A/H232R/R293Q) above, with H71R counted along it
Protocol: as §1

[5] = tested on: Her2 expressing HCC1954 breast tumor xenograft; experiment: Her2 expressing HCC1954 breast tumor xenograft model; assay type: in vivo, SCID-beige mice; conditions: single i.v. dose 1.7 mg/kg (40x higher payload dose than in 2.5 mg/kg mAb3-3.3) (Fig. 8)
Protocol: For in vivo testing in the Her2 expressing HCC1954 breast cancer xenograft mouse model, female SCID-beige mice at 8 to 12 weeks of age (purchased from Charles River Lab) were used for implantation. HCC1954 cells (obtained from ATCC) were cultured in RPMI medium supplemented with 10% fetal bovine serum at 37°C in a humidified incubator with 5% CO2 On the day of implantation, 1 × 10^7 HCC1954 cells were re-suspended in 100µL RPMI1640 serum free media containing 50% Matrigel and implanted subcutaneously in the right flank. After implant, tumors were measured by caliper and mice were weighed two times per week once tumors were palpable. Tumor volumes were calculated from caliper measurements using formula (L × W^2)/2. Animals were pair matched when tumor reached volume 100 - 150 mm^3 (designated as day 1). Two i.v. injections were performed on day 1 and 8 (D1 and D8) of 5mg/kg of anti-Her2 mAbl-3.4 (DAR 3.9), 5mg/kg mAbl-3.11 (DAR 3.9), 5mg/kg isotype mAb-3.4 (DAR 3.9), 5mg/kg anti-Her2 mAb1 or PBS vehicle. […]
Compound 3.13 was conjugated to engineered light chain C110 and heavy chain C375 of anti-Her2 mAb (mAb3) as described above. […] After implant, tumors were measured by caliper and mice were weighed two times per week once tumors were palpable. Tumors were measured in two dimensions and tumor volumes were calculated from caliper measurements using formula (L × W^2)/2. […]

[6] = tested on: AH1+ CD8+ T cells; experiment: Induction of tumor specific AH1+ CD8 T cells in CT26 model (flow cytometry); assay type: in vivo, BALB/c mice; conditions: blood collected on day 14, i.t. treatment
Description: The induction of tumor specific AH1+ CD8 T cells was monitored in response to Compound 2.2 treatment. Blood immune cells were collected on day 14 and red blood cells were lysed using red blood cell lysis buffer. Immune cells were immunophenotyped using viability dye (Zombie NIR Fixable Viability Kit, BioLegend) and monoclonal antibodies: BUV395 rat anti-mouse CD19, BUV395 hamster anti-mouse CD49b, APC hamster anti-mouse CD3, BV605 rat anti-mouse CD4, BV510 rat anti-mouse CD8, (all BD Biosciences). Specific staining using MHC-I dextramer: PE labelled AH1 peptide ([…], Immudex) was performed according to the manufacturer's recommendation. Specific and control samples of unstained cells, positive control for dead cells (cells in PBS incubated for 10 min at 65 °C and further stained with a live/dead marker), fluorescence minus one (FMO) and isotype controls (ISO) were prepared. Samples were measured immediately without a fixation step in a single tube format using BD LSRFortessa flow cytometer (BD Biosciences) in 250 µl of FC buffer (PBS containing 5% FBS). Data was acquired using FACS Diva software (version 8.0.1, BD Biosciences). Debris was excluded by forward and side scatter gating followed by doublet and dead cell exclusion. […] The data were analyzed using FlowJo software (version 10, BD Biosciences) and expressed as a frequency (%) of parent population, i.e. CD3+ T cells.

T1 sequence (Q86WV6 whole entry H232R): as the sequence (Q86WV6 whole entry R71H/G230A/H232R/R293Q) above, with H71R, A230G, Q293R counted along it

## Nc1ncnc2c1ncn2[C@@H]1O[C@@H]2OCP(=O)(S)O[C@@H]3[C@H](F)[C@@H](COP(=O)(S)OC[C@H]2[C@H]1F)O[C@H]3n1cnc2c(=O)[nH]cnc21 (single isomer, unassigned) [Compound 2.2]
[1]
  EC50: 0.02 µM
[2]
  EC50: 0.02 µM
[3]
  EC50: 0.05 µM
[4]
  EC50: 0.03 µM
[5]
  effect on HCC1954 tumors: only triggered tumor growth inhibition
[6]
  frequency of tumor specific CD8 T cell recognizing AH1 peptide compared to the vehicle arm: statistically significantly increased frequency
